Experimental data as given in ChEMBL document CHEMBL2086342, “Synthesis and preliminary bioevaluation of novel E-ring modified acetal analog of camptothecin as cytotoxic agents” (Eur J Med Chem, 2012).
Activity calls are given as the source filed them. No cut-off for these calls is given here.

Experiments:
A549 [1] = assay: Antiproliferative activity against human A549 cells after 3 days by MTT assay; format: functional, cell-based; conditions: A549, 72 h
HCT-116 = assay: Antiproliferative activity against human HCT116 cells after 3 days by MTT assay; format: functional, cell-based; conditions: HCT-116, 72 h
MDA-MB-435 = assay: Antiproliferative activity against human MDA-MB-435 cells after 3 days by MTT assay; format: functional, cell-based; conditions: MDA-MB-435, 72 h
Bos taurus [2] = species: Bos taurus; assay: Inhibition of calf thymus DNA topoisomerase 1-mediated relaxation of supercoiled DNA pBR322 assessed as appearance of short DNA fragment at 100 uM after 15 mins by agarose gel electrophoresis
A549 [3] = assay: Antitumor activity against human A549 cells xenografted in BALB/c mouse assessed as decrease in tumor weight at 2 mg/kg, ip qd for 5 days measured after 14 days relative to control; format: functional; conditions: route intraperitoneal, read-out: TGI
Mus musculus [4] = assay: Toxicity in human A549 cells xenografted in BALB/c mouse assessed as reduction in body weight at 2 mg/kg, ip qd for 5 days measured after 14 days; format: organism-based; set-up: dose 2 mg/kg, route intraperitoneal; conditions: in vivo, 336 h
A549 [5] = assay: Induction of apoptosis in human A549 cells at 5 uM after 48 hrs by annexinV and propidium iodide dual stain based flow cytometry analysis relative to control; format: functional
Mus musculus [6] = assay: Toxicity in human A549 cells xenografted in BALB/c mouse assessed as gross abnormalities at 2 mg/kg, ip qd for 5 days measured after 14 days by necropsy analysis; format: organism-based; set-up: dose 2 mg/kg, route intraperitoneal; conditions: in vivo, 336 h
Mus musculus [7] = assay: Toxicity in human A549 cells xenografted in BALB/c mouse assessed as mortality at 2 mg/kg, ip qd for 5 days measured after 14 days; format: organism-based; set-up: dose 2 mg/kg, route intraperitoneal; conditions: in vivo, 336 h
Bos taurus [8] = species: Bos taurus; assay: Inhibition of calf thymus DNA topoisomerase 1-mediated relaxation of supercoiled DNA pBR322 assessed as appearance of short DNA fragment at 1 to 50 uM after 15 mins by agarose gel electrophoresis
A549 [9] = assay: Induction of apoptosis in human A549 cells assessed as morphological change at 5 uM after 48 hrs by phase contrast microscopy analysis; format: functional, cell-based
ZR-75-30 = assay: Antiproliferative activity against human ZR75-30 cells after 3 days by MTT assay; format: functional, cell-based; conditions: ZR-75-30, 72 h
MRC5 = assay: Antiproliferative activity against human MRC5 cells after 3 days by MTT assay; format: cell-based; conditions: mrc5, 72 h
A549 [10] = assay: Antitumor activity against human A549 cells xenografted in BALB/c mouse assessed as decrease in tumor weight at 0.5 mg/kg, iv qd for 5 days measured after 14 days relative to control; format: functional; conditions: read-out: TGI
Mus musculus [11] = assay: Toxicity in human A549 cells xenografted in BALB/c mouse assessed as reduction in body weight at 0.5 mg/kg, iv qd for 5 days measured after 14 days; format: organism-based; set-up: dose 0.5 mg/kg, route intravenous; conditions: in vivo, 336 h
Mus musculus [12] = assay: Toxicity in human A549 cells xenografted in BALB/c mouse assessed as mortality at 0.5 mg/kg, iv qd for 5 days measured after 14 days; format: organism-based; set-up: dose 0.5 mg/kg, route intravenous; conditions: in vivo, 336 h
Bos taurus [13] = species: Bos taurus; assay: Inhibition of calf thymus DNA topoisomerase 1-mediated relaxation of supercoiled DNA pBR322 assessed as appearance of short DNA fragment after 15 mins by agarose gel electrophoresis

| Compound | IC50 (A549 [1]) [nM] | IC50 (HCT-116) [nM] | IC50 (MDA-MB-435) [nM] | inhibition (Bos taurus [2]) | other results |
| --- | --- | --- | --- | --- | --- |
| CCCO[C@@H]1OCc2c(cc3n(c2=O)Cc2cc4ccccc4nc2-3)[C@@]1(O)CC | 323 | 517 | 12700 |  |  |
| CC[C@]1(O)c2cc3n(c(=O)c2CO[C@H]1OC(C)C)Cc1cc2ccccc2nc1-3 | > 100000 | 11500 | > 100000 |  |  |
| CC[C@]1(O)c2cc3n(c(=O)c2CO[C@H]1OC)Cc1cc2ccccc2nc1-3 | 420 | 532 | 3670 | Active |  |
| CC[C@]1(O)c2cc3n(c(=O)c2CO[C@@H]1OC)Cc1cc2ccccc2nc1-3 | 8800 | 8170 | 56400 |  |  |
| CCCCc1c2c(nc3ccccc13)-c1cc3c(c(=O)n1C2)CO[C@@H](OCCOCC)[C@]3(O)CC | 598 | 1 | 223 | Active | inhibition in vivo at 2 mg/kg (A549 [3]): 27%; Activity (Mus musculus [4]): 21.09 g; Activity (A549 [5]): 0.5%; Activity (Mus musculus [6]): Non-toxic; Activity (Mus musculus [7]): Non-toxic; inhibition (Bos taurus [8]): inactive; Activity (A549 [9]): Active; IC50 (ZR-75-30): 122 nM; Activity (MRC5): Non-toxic |
| CC[C@@]1(O)C(=O)OCc2c1cc1n(c2=O)Cc2cc3c(CN(C)C)c(O)ccc3nc2-1 [TOPOTECAN] | 2800 | 88.9 | 917 |  | inhibition in vivo at 0.5 mg/kg (A549 [10]): 57.5%; Activity (Mus musculus [11]): 15.15 g; Activity (Mus musculus [12]): Non-toxic |
| CCOCCO[C@@H]1OCc2c(cc3n(c2=O)Cc2cc4c([N+](=O)[O-])cccc4nc2-3)[C@@]1(O)CC | 5690 | 56.9 | 1080 |  |  |
| CCCCCO[C@@H]1OCc2c(cc3n(c2=O)Cc2cc4ccccc4nc2-3)[C@@]1(O)CC | 678 | 127 | 10600 |  |  |
| CC[C@]1(O)c2cc3n(c(=O)c2CO[C@H]1OCCF)Cc1cc2ccccc2nc1-3 | 6310 | 249 | 1330 | Active |  |
| CCOCC(C)O[C@@H]1OCc2c(cc3n(c2=O)Cc2cc4ccccc4nc2-3)[C@@]1(O)CC (stereo partly drawn) | 7400 | 236 | 2520 |  |  |
| CCOCCO[C@@H]1OCc2c(cc3n(c2=O)Cc2cc4cc(OC)ccc4nc2-3)[C@@]1(O)CC | 838 | 1 | 210 | Active | inhibition (Bos taurus [8]): inactive |
| CC[C@]1(O)c2cc3n(c(=O)c2CO[C@H]1OCC(F)(F)F)Cc1cc2ccccc2nc1-3 | 5970 | 309 | 2300 | Active |  |
| CCO[C@@H]1OCc2c(cc3n(c2=O)Cc2cc4ccccc4nc2-3)[C@@]1(O)CC | 322 | 406 | 6250 | Active |  |
| CC[C@]1(O)c2cc3n(c(=O)c2CO[C@H]1OCCOC)Cc1cc2ccccc2nc1-3 | 5190 | 333 | 4920 | Active |  |
| CC[C@]1(O)c2cc3n(c(=O)c2CO[C@H]1OCC(C)C)Cc1cc2ccccc2nc1-3 | 394 | 210 | 7900 |  |  |
| CC[C@]1(O)c2cc3n(c(=O)c2CO[C@H]1OCC(F)(F)C(F)(F)F)Cc1cc2ccccc2nc1-3 | 302 | 73 | 606 |  |  |
| CCCCO[C@@H]1OCc2c(cc3n(c2=O)Cc2cc4ccccc4nc2-3)[C@@]1(O)CC | > 100000 | 95100 | > 100000 | Active |  |
| CC[C@]1(O)c2cc3n(c(=O)c2CO[C@H]1OC(C)COC)Cc1cc2ccccc2nc1-3 (stereo partly drawn) | 8380 | 117 | 2740 |  |  |
| CCC(C)O[C@@H]1OCc2c(cc3n(c2=O)Cc2cc4ccccc4nc2-3)[C@@]1(O)CC (stereo partly drawn) | > 100000 | > 100000 | > 100000 |  |  |
| CCOCCO[C@@H]1OCc2c(cc3n(c2=O)Cc2cc4ccccc4nc2-3)[C@@]1(O)CC | 2580 | 90.2 | 469 | Active | inhibition in vivo at 2 mg/kg (A549 [3]): 35%; Activity (Mus musculus [4]): 20.98 g; Activity (Mus musculus [6]): Non-toxic; Activity (Mus musculus [7]): Non-toxic |
| CC[C@@]1(O)C(=O)OCc2c1cc1n(c2=O)Cc2cc3ccccc3nc2-1 [CAMPTOTHECIN] | 2610 | 110 | 43.6 |  | inhibition (Bos taurus [13]): Dose-dependent effect |
| CC[C@]1(O)c2cc3n(c(=O)c2CO[C@H]1OC(=O)CCC(=O)O)Cc1cc2ccccc2nc1-3 | 308 | 264 | 1320 |  |  |
